The record followed here is US11173146B2, “Selective activators of the intermediate conductance CA2+activated K+ channel KCa3.1 and their methods of use” (The Regents of the University of California, priority 2014, dated 2021).

Data set [1] in a line: logP. The class given is physicochemical.
Data set [2] concerns the target KCa3.1 (Homo sapiens, UniProt O15554+P0DP23). Nature of the data set: Whole-cell patch-clamp KCa3.1 activation (QPatch, HEK-293). The class given is cell-based. Also on record: host or cells: HEK-293. The source says:
Cells, Cell lines and Clones. […] The cloning of hKCa2.3 (19 CAG repeats) and hKCa3.1 has been previously described (Wulff et al., 2000). The hKCa2.3 clone was later stably expressed in COS-7 cells at Aurora Biosciences Corp., San Diego, Calif. Cell lines stably expressing other mammalian ion channels were gifts from several sources: hKCa1.1 in HEK-293 cells (Andrew Tinker, University College London); hKV2.1 in HEK293 cells (James Trimmer, UC Davis); KV11.1 (HERG) in HEK-293 cells (Craig January, University of Wisconsin, Madison); hNaV1.4 in HEK-293 cells (Frank Lehmann-Horn, University of Ulm, Germany), hNaV1.5 in HEK-293 cells (Christopher Lossin, University of California Davis), and hCaV1.2 in HEK-293 cells (Franz Hofmann, Munich, Germany).
Electrophysiology. Experiments were conducted either manually with an EPC-10 amplifier (HEKA, Lambrecht/Pfalz, Germany) or on a QPatch-16 automated electrophysiology platform (Sophion Biosciences, Denmark). […] Patch pipettes were pulled from soda lime glass (micro-hematocrit tubes, Kimble Chase, Rochester, N.Y.) and had resistances of 2-3 MΩ. […] Free Ca^2+ concentrations were calculated with MaxChelator assuming a temperature of 25° C., a pH of 7.2 and an ionic strength of 160 mM. […] Na^+ aspartate Ringer was used as an external solution (in mM): 160 Na^+ aspartate, 4.5 KCl, 2 CaCl2, 1 MgCl2, 5 HEPES, pH 7.4, 290-310 mOsm. […] Reduction of both peak and tail current by the drug was determined. NaV1.7 currents were recorded with 30 ms pulses from −90 mV to −10 mV every 10 sec with a CsF-based pipette solution and normal Ringer as an external solution. CaV1.2 currents were elicited by 100-ms depolarizing pulses from −80 to 20 mV every 10 sec with a CsCl-based pipette solution and an external solution containing 30 mM BaCl2. Blockade of both Na^+ and Ca^2+ currents was determined as reduction of the current minimum.
For automated electrophysiology experiments cells were grown to ˜70% confluency, rinsed in sterile PBS containing 0.02% EDTA, and lifted with 2 mL of TrypLE™ Express (Gibco, Grand Island, N.Y.) for ˜2 min. When cells were rounded but not detached, they were dislodged by gentle tapping, suspended in DMEM, centrifuged and resuspended in 1 ml of external solution, placed into the Qfuge tube and resuspended in 150-200 μL extracellular solution after one additional spin on the QPatch. Whole-cell patch-clamp experiments were then carried out using disposable 16-channel planar patch chip plates (QPlates; patch hole diameter approximately 1 μm, resistance 2.00±0.02 MΩ). […] In order to avoid rejection of cells with large KCa3.1 currents the minimum seal resistance for whole-cell requirement was lowered to 0.001 GΩ. […] Following establishment of the whole-cell configuration, cells were held at −80 mV and KCa3.1, KCa2.1 or KCa2.2 currents elicited by a voltage protocol that held at −80 mV for 20 ms, stepped to −120 mV for 20 ms, ramped from −120 to 40 mV in 200 ms and then stepped back to −120 mV for 20 ms. This pulse protocol was applied every 10 s. […] NaV1.2 currents from N1E-115 cells, NaV1.4 and NaV1.5 currents from stably transfected HEK cells were recorded with 20 ms pulses from −90 mV to 0 mV every 10 sec with a KF-based internal solution and normal Ringer as an external solution. Current slopes (in ampere per sec) were measured using the SophionQPatch software and exported to Microsoft Excel and Origin 7.0 (OriginLab Corp. MA) for analysis. […] Data fitting to the Hill equation to obtain EC50 and IC50 values was performed with Origin 7.0. Data are expressed as mean±SD.
A general note: Patch clamp records ionic current or voltage across a cell membrane.

For data set [3], the target named is rKCa2.2 (UniProt P0DP23+P70604). The data set is described as follows: Whole-cell patch-clamp KCa2.2 activation (HEK-293).
Method: Electrophysiology. Experiments were conducted either manually with an EPC-10 amplifier (HEKA, Lambrecht/Pfalz, Germany) or on a QPatch-16 automated electrophysiology platform (Sophion Biosciences, Denmark). […] Patch pipettes were pulled from soda lime glass (micro-hematocrit tubes, Kimble Chase, Rochester, N.Y.) and had resistances of 2-3 MΩ. […] Free Ca^2+ concentrations were calculated with MaxChelator assuming a temperature of 25° C., a pH of 7.2 and an ionic strength of 160 mM. […] Na^+ aspartate Ringer was used as an external solution (in mM): 160 Na^+ aspartate, 4.5 KCl, 2 CaCl2, 1 MgCl2, 5 HEPES, pH 7.4, 290-310 mOsm. Both KCa2 and KCa3.1 currents were elicited by 200-ms voltage ramps from −120 mV to 40 mV applied every 10 sec and the fold-increase of slope conductance at −80 mV by drug taken as a measure of channel activation.
For automated electrophysiology experiments cells were grown to ˜70% confluency, rinsed in sterile PBS containing 0.02% EDTA, and lifted with 2 mL of TrypLE™ Express (Gibco, Grand Island, N.Y.) for ˜2 min. […] Current slopes (in ampere per sec) were measured using the SophionQPatch software and exported to Microsoft Excel and Origin 7.0 (OriginLab Corp. MA) for analysis.

Values joined by “and” are separate entries in the source; they are usually repeats but may differ in a detail not shown here. Identical values can stand only once. Like-named read-outs stand apart in the source and are kept apart here.

`Cc1cc2nc(N)oc2c2ccccc12` [SKA-121, 5-Methylnaphtho[2,1-d]oxazol-2-amine]: the logP (in general, the decadic logarithm of the partition coefficient of the neutral form, usually between octanol and water) in data set [1] came out at 1.79. In data set [2] (250 nM free Ca2+), the “maximal KCa3.1 current increase” value was “roughly 30 fold”. Moreover, the half-maximal effective concentration (EC50) (as a rule, the midpoint of the concentration-response curve) in data set [2] (250 nM free Ca2+, read-out: EC50 for KCa3.1 activation) is 109 nM and 111 nM and ~110 nM; in data set [2] (Appendix A, read-out: KCa3.1 EC50 (converted)), 200 nM; in data set [2] (Table 1, 250 nM free Ca2+, read-out: KCa3.1 EC50 (converted)), 109 nM; in data set [3], 6800 ± 2200 nM. For the same molecule, the “Hill coefficient nH, KCa3.1 concentration-response curve” value in data set [2] (FIG. 4 legend) is 3.0. Moreover, the “selectivity for KCa3.1 over the three KCa2 channels” value in data set [2] (KCa2.1, KCa2.2 and KCa2.3) is reported as 40-80 fold. Further, the “selectivity for KCa3.1 over KCa2.3” value in data set [2] (ratio of EC50 values) is on record as approximately 40 fold. For the same molecule, the “Hill coefficient nH, KCa2.2 concentration-response curve” value in data set [3] (FIG. 4 legend) is recorded as 1.7.
